Reference: publication PMC12073298, “Design, Synthesis, and Biological Evaluation of Naphthoquinone Salts as Anticancer Agents” (Molecules, 2025)
Like-named read-outs stand apart in the source and are kept apart here.

How the values were obtained:
[1] = tested on: human endometrial cancer cells (HEC1A); conditions: previous study, cited from earlier work
[2] = tested on: human endometrial cancer cells (HEC1A); experiment: MTT cell viability assay, HEC1A cells; format: cell-based; conditions: for IC50: 48 h, HEC1A cells, MTT, n = 3 biological replicates, read-out: Mean IC50 (μM) HEC1A ± SD; for Selectivity Ratio: IC50 value from MAD11 cells divided by the IC50 value from HEC1A cells
Procedure: (§1) The cytotoxic effects of the synthesized salt compounds were assessed against human endometrial cancer cells (HEC1A) and normal endometrial stromal cells (MAD11) using the MTT cell viability assay. BH10 was used as the reference compound.
(§2) Reagents and equipment: phosphate-buffered saline (PBS) (Sigma Aldrich, St. Louis, MO, USA), 10× Trypsin-EDTA solution (Sigma Aldrich, 59418C), Dulbecco’s Modified Eagle’s Medium (Sigma Aldrich), foetal bovine serum (FBS), and 100× penicillin-streptomycin solution (Sigma Aldrich P4333). The MTT reagent was prepared by dissolving 5 mg/mL MTT powder in sterile PBS, followed by filtration, whereas the MTT solvent contained 4 mM HCl and 0.1% Nonidet P-40 in isopropanol. Dimethyl sulfoxide (DMSO) was also sourced from Sigma Aldrich. Absorbance measurements were acquired using Kaleido 1.0 software coupled with an EnSight™ HH3400 Multimode Plate Reader (PerkinElmer, Waltham, MA, USA). HEC-1-A endometrial cancer cells were obtained from ATCC, while MAD11 endometrial stromal cells were provided by Dr. Hui Li (University of Virginia). MAD11 cells, derived from non-cancerous donors, were immortalized via human telomerase reverse transcriptase (hTERT).
(§3) Method: The methods were adapted from Byrne et al. (2014). Cells were cultured in DMEM supplemented with 10% FBS and 1% Pen-Strep solution (100 U/mL penicillin and 0.1 mg/mL streptomycin). Upon reaching ~70% confluence, the cells were washed with sterile PBS and detached using a 1× trypsin-EDTA solution. The cells were then resuspended in culture media, counted, and seeded into sterile 96-well tissue culture plates (2500 cells per well for MAD11; 5000 cells per well for HEC-1-A). The cells were incubated at 37 °C with 5% CO2 for 24 h prior to drug treatment. Drugs were serially diluted in culture medium to final concentrations of 100, 50, 25, 12.5, 6.3, 3.1, 1.6, and 0.8 µM per well and applied in triplicate. For compounds 7a–f and 15, as their IC₅₀ values were below 0.8 µM, an additional set of three biological replicates was conducted using a lower concentration range (500, 250, 125, 63, 31, 16, 8, and 4 nM). To minimize variations due to DMSO (vehicle), both drug dilutions and control wells received the same final concentration of DMSO. After 48 h of incubation at 37 °C with 5% CO2, cell viability was assessed by adding 20 µL/well of MTT reagent for 3 h. Supernatants were aspirated, and formazan crystals were dissolved in MTT solvent before absorbance was measured at 590/620 nm using an EnSight™ HH3400 Multimode Plate Reader. Cell viability was expressed as a percentage of the vehicle (DMSO-treated) control, with results reported as mean ± SEM from three independent experiments. IC50 values were determined using GraphPad Prism 9.

[3] = tested on: normal endometrial stromal cells (MAD11); experiment: MTT cell viability assay, MAD11 cells; format: cell-based, human; conditions: MAD11 non-cancerous cells, n = 3 biological replicates, read-out: Mean IC50 (μM) MAD11 ± SD
Procedure: as §1, §2, §3

[4] = cell line not printed here, read-out: IC50 (anticancer potency of starting materials)
[5] = non-salt parent compounds, read-out: IC50 of parent naphthoimidazole analogues

IC50 ([2]; Homo sapiens, HEC-1-A) [µM] | Structure (SMILES) | Selectivity Ratio [2] | IC50 ([3]; Homo sapiens, MAD11, 48 h) [µM] | further results
– | O=C1C=C(NCCN2CCOCC2)C(=O)c2ccccc21 [Compound 1a] | – | – | IC50 [1, 4]: > 40 µM
– | CC1=C(NCCN2CCOCC2)C(=O)c2ccccc2C1=O [Compound 1h] | – | – | IC50 [1, 4]: > 40 µM
21.1 ± 2.99 | C[N+]1(CCNC2=CC(=O)c3ccccc3C2=O)CCOCC1.[I-] [Compound 2a, 4-(2-((1,4-Dioxo-1,4-dihydronaphthalen-2-yl)amino)ethyl)-4-methylmorpholin-4-ium iodide] | >4.73 | > 100 | –
> 100 | C[N+]1(CCCNC2=CC(=O)c3ccccc3C2=O)CCCCC1 [Compound 2b, 1-(3-((1,4-Dioxo-1,4-dihydronaphthalen-2-yl)amino)propyl)-1-methylpiperidin-1-ium iodide] | – | > 100 | –
97.2 ± 8.2 | C[N+](C)(C)CCNC1=C(Cl)C(=O)c2ccccc2C1=O [Compound 2c, 2-((3-Chloro-1,4-dioxo-1,4-dihydronaphthalen-2-yl)amino)-N,N,N-trimethylethan-1-aminium iodide] | – | > 100 | –
58.8 ± 3.01 | C[N+]1(CCNC2=C(Cl)C(=O)c3ccccc3C2=O)CCCCC1.[I-] [Compound 2d, 1-(2-((3-Chloro-1,4-dioxo-1,4-dihydronaphthalen-2-yl)amino)ethyl)-1-methylpiperidin-1-ium iodide] | >1.70 | > 100 | –
> 100 | C[N+](C)(C)CCCNC1=C(Cl)C(=O)c2ccccc2C1=O [Compound 2e, 3-((3-Chloro-1,4-dioxo-1,4-dihydronaphthalen-2-yl)amino)-N,N,N-trimethylpropan-1-aminium iodide] | – | > 100 | –
> 100 | C[N+]1(CCCNC2=C(Cl)C(=O)c3ccccc3C2=O)CCOCC1 [Compound 2f, 4-(3-((3-Chloro-1,4-dioxo-1,4-dihydronaphthalen-2-yl)amino)propyl)-4-methylmorpholin-4-ium iodide] | – | > 100 | –
23.8 ± 4.17 | C[N+]1(CCNC2=C(Br)C(=O)c3ccccc3C2=O)CCOCC1.[I-] [Compound 2g, 4-(2-((3-Bromo-1,4-dioxo-1,4-dihydronaphthalen-2-yl)amino)ethyl)-4-methylmorpholin-4-ium iodide] | >4.20 | > 100 | –
95.5 ± 14.7 | CC1=C(NCC[N+]2(C)CCOCC2)C(=O)c2ccccc2C1=O [Compound 2h, 4-Methyl-4-(2-((3-methyl-1,4-dioxo-1,4-dihydronaphthalen-2-yl)amino)ethyl)morpholin-4-ium iodide] | – | > 100 | –
0.00953 ± 0.0007 | Cc1n(C)c2c([n+]1C)C(=O)c1ccccc1C2=O.[Br-] [Compound 7a, 1,2,3-Trimethyl-4,9-dioxo-4,9-dihydro-1H-naphtho [2,3-d]imidazol-3-ium bromide] | 6.89 | – | IC50 ([3]; 48 h): 0.0657 ± 0.00641 µM
0.023 ± 0.0033 | Cc1n(C)c2c([n+]1C)C(=O)c1c(cccc1[N+](=O)[O-])C2=O.[Br-] [Compound 7b, 1,2,3-Trimethyl-5-nitro-4,9-dioxo-4,9-dihydro-1H-naphtho [2,3-d]imidazol-3-ium bromide] | 41.43 | 0.952 ± 0.215 | –
0.0288 ± 0.0014 | Cc1n(C)c2c([n+]1C)C(=O)c1cc([N+](=O)[O-])ccc1C2=O.[Br-] [Compound 7c, 1,2,3-Trimethyl-6-nitro-4,9-dioxo-4,9-dihydro-1H-naphtho [2,3-d]imidazol-3-ium bromide] | 2.37 | 0.0685 ± 0.0061 | –
0.0256 ± 0.0021 | COc1ccc2c(c1)C(=O)c1c(n(C)c(C)[n+]1C)C2=O [Compound 7d, 6-Methoxy-1,2,3-trimethyl-4,9-dioxo-4,9-dihydro-1H-naphtho [2,3-d]imidazol-3-ium bromide] | – | 0.194 ± 0.0191 | –
0.0149 ± 0.0012 | Cc1ccc2c(c1)C(=O)c1c([n+](C)c(C)n1C)C2=O [Compound 7e, 1,2,3,7-Tetramethyl-4,9-dioxo-4,9-dihydro-1H-naphtho [2,3-d]imidazol-3-ium bromide] | – | 0.101 ± 0.0124 | –
0.472 ± 0.0378 | Cc1n(C)c2c([n+]1C)C(=O)c1ccncc1C2=O.[Br-] [Compound 7f, 1,2,3-Trimethyl-4,9-dioxo-4,9-dihydro-3H-imidazo [4,5-g]isoquinolin-1-ium bromide] | 10.16 | 4.8 ± 0.327 | loss in potency relative to 7a ([2]; Figure 3, SAR summary): ~ 50 fold
24.9 | Cc1n(C)c2cc3ccccc3cc2[n+]1C.[I-] [Compound 9, 1,2,3-Trimethyl-1H-naphtho [2,3-d]imidazol-3-ium iodide] | 2.70 | 64.6 ± 14 | IC50 [2]: 23.9 ± 2.97 µM
> 100 | Cc1n(C)c2ccccc2[n+]1C [Compound 11, 1,2,3-Trimethyl-1H-benzo[d]imidazol-3-ium iodide] | – | > 100 | –
> 100 | Cn1c[n+](C)c2ccccc21 [Compound 13, 1,3-Dimethyl-1H-benzo[d]imidazol-3-ium iodide] | – | > 100 | –
– | Cc1n(C)c2c([n+]1C)C(=O)c1ccccc1C2=O.[I-] [Compound 15, 1,2,3-Trimethyl-4,9-dioxo-4,9-dihydro-1H-naphtho [2,3-d]imidazol-3-ium iodide] | 11.43 | – | IC50 [2]: 0.0135 ± 0.0009 µM; IC50 ([3]; 48 h): 0.154 ± 0.0109 µM
– | O=C1c2ccccc2C(=O)c2c1nc(C(F)(F)F)n2Cc1cn(CCN2CCOCC2)nn1 [Compound 16a] | – | – | selectivity of parent naphthoimidazole analogues ([1]; non-salt parent compounds): 1.73; IC50 [1, 5]: 18.1 µM
– | O=C1c2ccccc2C(=O)c2c1nc(C(F)(F)F)n2Cc1cn(CCN2CCCCC2)nn1 [Compound 16b] | – | – | selectivity of parent naphthoimidazole analogues ([1]; non-salt parent compounds): 2.01
– | O=C1c2ccccc2C(=O)c2c1nc(C(F)(F)F)n2Cc1cn(CCCN2CCCCC2)nn1 [Compound 16c] | – | – | selectivity of parent naphthoimidazole analogues ([1]; non-salt parent compounds): 2.77; IC50 [1, 5]: 2.6 µM
11.2 ± 2.63 | C[N+]1(CCn2cc(Cn3c(C(F)(F)F)nc4c3C(=O)c3ccccc3C4=O)nn2)CCOCC1.[I-] [Compound 17a, 4-(2-(4-((4,9-Dioxo-2-(trifluoromethyl)-4,9-dihydro-1H-naphtho [2,3-d]imidazol-1-yl)methyl)-1H-1,2,3-triazol-1-yl)ethyl)-4-methylmorpholin-4-ium iodide] | 9.93 | 111 ± 45 | –
6.79 ± 1 | C[N+]1(CCn2cc(Cn3c(C(F)(F)F)nc4c3C(=O)c3ccccc3C4=O)nn2)CCCCC1.[I-] [Compound 17b, 1-(2-(4-((4,9-Dioxo-2-(trifluoromethyl)-4,9-dihydro-1H-naphtho [2,3-d]imidazol-1-yl)methyl)-1H-1,2,3-triazol-1-yl)ethyl)-1-methylpiperidin-1-ium iodide] | >14.73 | > 100 | –
5.62 ± 1.43 | C[N+]1(CCCn2cc(Cn3c(C(F)(F)F)nc4c3C(=O)c3ccccc3C4=O)nn2)CCCCC1.[I-] [Compound 17c, 1-(3-(4-((4,9-Dioxo-2-(trifluoromethyl)-4,9-dihydro-1H-naphtho [2,3-d]imidazol-1-yl)methyl)-1H-1,2,3-triazol-1-yl)propyl)-1-methylpiperidin-1-ium iodide] | >17.79 | > 100 | –
– | Cc1nc2c(n1CCCN1CCCCC1)C(=O)c1ccccc1C2=O [Compound 18] | – | – | selectivity of parent naphthoimidazole analogues ([1]; non-salt parent compounds): 3.59; IC50 [1, 5]: 6.4 µM
6.35 ± 1.41 | Cc1nc2c(n1CCC[N+]1(C)CCCCC1)C(=O)c1ccccc1C2=O.[I-] [Compound 19, 1-Methyl-1-(3-(2-methyl-4,9-dioxo-4,9-dihydro-1H-naphtho [2,3-d]imidazol-1-yl)propyl) piperidin-1-ium iodide] | 6.42 | 40.8 ± 14.1 | –
